Results on one compound are retold here after ChEMBL document CHEMBL4665648, “Potent and selective inhibitors of receptor-interacting protein kinase 1 that lack an aromatic back pocket group” (Bioorg Med Chem Lett, 2019).

The target of data set [1] is Calcium/calmodulin-dependent protein kinase type 1D (Homo sapiens) (UniProt Q8IU85). Put plainly: Inhibition of recombinant human His-tagged full length CAMK1delta expressed in baculovirus expression system using Ser/Thr 25 as substrate at 10 uM incubated for 60 mins by Z'-Lyte assay relative to control.
Data set [2] concerns the target RAC-beta serine/threonine-protein kinase (Homo sapiens) (UniProt P31751). Briefly: Inhibition of recombinant human His-tagged full length AKT2 expressed in baculovirus expression system using Ser/Thr 06 as substrate at 10 uM incubated for 60 mins by Z'-Lyte assay relative to control.
Data set [3] addresses Mitogen-activated protein kinase kinase kinase 9 (Homo sapiens) (UniProt P80192). Briefly: Inhibition of recombinant human GST-tagged MLK1 (1 to 500 residues) expressed in baculovirus expression system using Ser/Thr 07 as substrate at 10 uM incubated for 60 mins by Z'-lyte assay relative to control.
Data set [4] deals with SRSF protein kinase 3 (Homo sapiens) (UniProt Q9UPE1). Briefly: Inhibition of recombinant human GST-tagged full length MSSK1 expressed in baculovirus expression system using Ser/Thr 13 as substrate at 10 uM incubated for 60 mins by Z'-lyte assay relative to control.
Chain of SRSF protein kinase 3 (Homo sapiens) (Q9UPE1 whole entry): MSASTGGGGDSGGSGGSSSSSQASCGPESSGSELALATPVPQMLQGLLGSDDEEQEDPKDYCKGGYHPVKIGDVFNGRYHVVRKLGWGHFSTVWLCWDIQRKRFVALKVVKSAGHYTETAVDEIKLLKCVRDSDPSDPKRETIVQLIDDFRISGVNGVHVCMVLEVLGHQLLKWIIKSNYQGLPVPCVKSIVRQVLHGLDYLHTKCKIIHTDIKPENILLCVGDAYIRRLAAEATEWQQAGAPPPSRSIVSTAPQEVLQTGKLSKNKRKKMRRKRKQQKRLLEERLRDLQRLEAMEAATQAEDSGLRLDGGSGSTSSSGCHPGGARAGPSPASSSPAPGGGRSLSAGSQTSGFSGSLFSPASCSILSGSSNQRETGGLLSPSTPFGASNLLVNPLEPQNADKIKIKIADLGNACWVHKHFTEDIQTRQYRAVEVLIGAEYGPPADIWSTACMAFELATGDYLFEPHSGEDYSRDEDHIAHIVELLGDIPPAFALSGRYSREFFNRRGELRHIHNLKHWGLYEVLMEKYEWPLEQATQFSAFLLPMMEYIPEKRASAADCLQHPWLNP
The target of data set [5] is Death-associated protein kinase 3 (Homo sapiens) (UniProt O43293). Put plainly: Inhibition of recombinant human GST-tagged full length ZIPK expressed in baculovirus expression system using Ser/Thr 13 as substrate at 10 uM incubated for 60 mins by Z'-Lyte assay relative to control.
Data set [6] has as its target Serine/threonine-protein kinase Nek9 (Homo sapiens) (UniProt Q8TD19). Briefly: Inhibition of recombinant human GST-tagged NEK9 (347 to 732 residues) expressed in baculovirus expression system using Ser/Thr 07 as substrate at 10 uM incubated for 60 mins by Z'-lyte assay relative to control.
For data set [7], the target named is Serine/threonine-protein kinase 4 (Homo sapiens) (UniProt Q13043). Put plainly: Inhibition of recombinant human GST-tagged full length MST1 expressed in baculovirus expression system using Ser/Thr 01 as substrate at 10 uM incubated for 60 mins by Z'-lyte assay relative to control.
Data set [8] deals with Serine/threonine-protein kinase DCLK2 (Homo sapiens) (UniProt Q8N568). Briefly: Inhibition of recombinant human GST-tagged full length DCAMKL2 expressed in baculovirus expression system using Ser/Thr 17 as substrate at 10 uM incubated for 60 mins by Z'-Lyte assay relative to control.
For data set [9], the target named is CDK8/Cyclin C (Homo sapiens) (UniProt P49336+P24863). Briefly: Inhibition of tracer 236 binding to recombinant human His-tagged full length CDK8/Cyclin C expressed in baculovirus expression system at 10 uM incubated for 60 mins by Lanthascreen assay relative to control. In general terms: In TR-FRET formats the signal depends on donor and acceptor labels being close together.

Data set [10] addresses Fibroblast growth factor receptor 3 (Homo sapiens) (UniProt P22607). Put plainly: Inhibition of recombinant human His-tagged FGFR3 (399 to 806 residues) expressed in baculovirus expression system using Tyr 04 as substrate at 10 uM incubated for 60 mins by Z'-Lyte assay relative to control.
The target in data set [11] is Misshapen-like kinase 1 (Homo sapiens) (UniProt Q8N4C8). Briefly: Inhibition of recombinant human GST-tagged MINK1 (1 to 320 residues) expressed in baculovirus expression system using Ser/Thr 07 as substrate at 10 uM incubated for 60 mins by Z'-lyte assay relative to control.
Chain of Misshapen-like kinase 1 (Homo sapiens) (Q8N4C8 whole entry, looked up, the tested form may be a part): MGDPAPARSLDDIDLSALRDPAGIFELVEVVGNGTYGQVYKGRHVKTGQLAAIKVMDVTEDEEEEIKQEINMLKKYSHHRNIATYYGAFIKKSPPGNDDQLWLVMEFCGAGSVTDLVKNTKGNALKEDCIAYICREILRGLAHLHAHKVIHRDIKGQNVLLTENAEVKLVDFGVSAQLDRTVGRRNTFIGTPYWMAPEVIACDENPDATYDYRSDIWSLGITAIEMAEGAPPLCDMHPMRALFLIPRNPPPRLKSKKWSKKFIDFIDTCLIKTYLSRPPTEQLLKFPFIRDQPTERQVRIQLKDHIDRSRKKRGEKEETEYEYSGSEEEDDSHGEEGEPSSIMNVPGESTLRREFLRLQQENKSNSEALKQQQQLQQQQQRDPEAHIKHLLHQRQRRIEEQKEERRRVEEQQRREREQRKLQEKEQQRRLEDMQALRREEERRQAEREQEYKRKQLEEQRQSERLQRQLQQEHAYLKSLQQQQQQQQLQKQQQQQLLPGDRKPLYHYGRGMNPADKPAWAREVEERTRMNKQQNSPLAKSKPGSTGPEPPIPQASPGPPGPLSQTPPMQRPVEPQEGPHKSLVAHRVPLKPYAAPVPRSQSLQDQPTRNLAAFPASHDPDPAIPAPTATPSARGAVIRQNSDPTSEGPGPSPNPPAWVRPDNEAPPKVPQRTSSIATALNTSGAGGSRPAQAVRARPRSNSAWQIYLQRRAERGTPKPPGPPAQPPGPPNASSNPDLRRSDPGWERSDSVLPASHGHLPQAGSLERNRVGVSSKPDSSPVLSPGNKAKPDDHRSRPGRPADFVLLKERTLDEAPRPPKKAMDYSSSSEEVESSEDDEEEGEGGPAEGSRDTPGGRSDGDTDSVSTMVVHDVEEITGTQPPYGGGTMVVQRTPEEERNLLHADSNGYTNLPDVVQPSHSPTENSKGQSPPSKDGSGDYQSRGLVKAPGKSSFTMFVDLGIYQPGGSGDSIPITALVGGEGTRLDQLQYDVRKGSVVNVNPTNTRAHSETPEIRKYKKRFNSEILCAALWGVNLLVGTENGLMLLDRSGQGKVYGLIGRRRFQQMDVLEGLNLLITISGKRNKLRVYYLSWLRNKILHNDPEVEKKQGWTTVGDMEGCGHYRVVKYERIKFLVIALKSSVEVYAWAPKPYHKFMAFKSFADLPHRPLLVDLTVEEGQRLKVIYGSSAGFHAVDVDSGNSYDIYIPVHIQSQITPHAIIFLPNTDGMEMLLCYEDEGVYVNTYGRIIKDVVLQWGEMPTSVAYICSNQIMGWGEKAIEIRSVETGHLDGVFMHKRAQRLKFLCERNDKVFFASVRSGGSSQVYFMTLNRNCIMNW
Data set [12] concerns the target Serine/threonine-protein kinase MARK1 (Homo sapiens) (UniProt Q9P0L2). Briefly: Inhibition of recombinant human GST-tagged full length MARK1 expressed in baculovirus expression system using Ser/Thr 21 as substrate at 10 uM incubated for 60 mins by Z'-lyte assay relative to control.
The target of data set [13] is Serine/threonine-protein kinase 17A (Homo sapiens) (UniProt Q9UEE5). Put plainly: Inhibition of tracer 236 binding to recombinant human GST-tagged full length DRAK1 expressed in baculovirus expression system at 10 uM incubated for 60 mins by Lanthascreen assay relative to control.
The target of data set [14] is Focal adhesion kinase 1 (Homo sapiens) (UniProt Q05397). Put plainly: Inhibition of recombinant human GST-tagged full length FAK expressed in baculovirus expression system using Tyr 07 as substrate at 10 uM incubated for 60 mins by Z'-Lyte assay relative to control.
The target in data set [15] is Serine/threonine-protein kinase PAK 4 (Homo sapiens) (UniProt O96013). Briefly: Inhibition of recombinant human His-tagged PAK4 (295 to 591 residues) expressed in baculovirus expression system using Ser/Thr 20 as substrate at 10 uM incubated for 60 mins by Z'-lyte assay relative to control.
Data set [16] addresses Receptor-interacting serine/threonine-protein kinase 2 (Homo sapiens) (UniProt O43353). Put plainly: Inhibition of tracer 178 binding to recombinant human His-tagged RIPK2 (1 to 299 residues) expressed in insect expression system at 10 uM incubated for 60 mins by Lanthascreen assay relative to control.
Data set [17] deals with Tyrosine-protein kinase HCK (Homo sapiens) (UniProt P08631). Briefly: Inhibition of recombinant human N-terminal GST-tagged full length HCK expressed in baculovirus expression system using Tyr 02 as substrate at 10 uM incubated for 60 mins by Z'-Lyte assay relative to control.
Chain of Tyrosine-protein kinase HCK (Homo sapiens) (P08631 2-526 limits assumed): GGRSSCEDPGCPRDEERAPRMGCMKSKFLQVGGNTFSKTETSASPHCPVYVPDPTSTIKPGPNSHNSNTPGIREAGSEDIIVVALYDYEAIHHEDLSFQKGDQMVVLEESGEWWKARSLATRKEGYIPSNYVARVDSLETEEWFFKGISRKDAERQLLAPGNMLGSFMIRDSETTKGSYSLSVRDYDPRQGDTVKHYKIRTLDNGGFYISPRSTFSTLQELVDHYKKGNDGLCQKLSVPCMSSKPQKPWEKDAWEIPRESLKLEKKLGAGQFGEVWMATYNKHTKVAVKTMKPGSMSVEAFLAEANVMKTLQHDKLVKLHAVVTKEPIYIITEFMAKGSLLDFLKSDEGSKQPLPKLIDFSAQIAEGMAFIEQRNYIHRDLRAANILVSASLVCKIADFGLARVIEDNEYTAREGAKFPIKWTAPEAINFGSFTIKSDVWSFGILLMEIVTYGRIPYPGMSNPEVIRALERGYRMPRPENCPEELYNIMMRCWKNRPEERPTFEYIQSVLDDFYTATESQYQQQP
For data set [18], the target named is Rho-associated protein kinase 1 (Homo sapiens) (UniProt Q13464). Put plainly: Inhibition of recombinant human GST-tagged ROCK1 (1 to 535 residues) expressed in baculovirus expression system using Ser/Thr 07 as substrate at 10 uM incubated for 60 mins by Z'-Lyte assay relative to control.
Data set [19] deals with Leucine-rich repeat serine/threonine-protein kinase 2 (Homo sapiens) (UniProt Q5S007). Briefly: Inhibition of recombinant human GST-tagged LRRK2 (970 to 2527 residues) expressed in baculovirus expression system using LRRKtide as substrate at 10 uM incubated for 60 mins by Adapta assay relative to control.
The target in data set [20] is Mitogen-activated protein kinase 8 (Homo sapiens) (UniProt P45983). Put plainly: Inhibition of recombinant human His-tagged full length JNK1alpha1 expressed in baculovirus expression system using Ser/Thr 04 as substrate at 10 uM incubated for 60 mins by Z'-lyte assay relative to control.
Data set [21] can be described thus: Kinetic solubility of compound at pH 7.4. The format is physicochemical. Conditions: buffer, read-out: Kinetic_solubility.
The target in data set [22] is Fibroblast growth factor receptor 1 (Homo sapiens) (UniProt P11362). Briefly: Inhibition of recombinant human His-tagged FGFR1 (308 to 731 residues) expressed in baculovirus expression system using Tyr 01 as substrate at 10 uM incubated for 60 mins by Z'-Lyte assay relative to control.
Data set [23] concerns the target Aurora kinase B (Homo sapiens) (UniProt Q96GD4). Briefly: Inhibition of recombinant human His-tagged full length Aurora B expressed in baculovirus expression system using Ser/Thr 01 as substrate at 10 uM incubated for 60 mins by Z'-Lyte assay relative to control.
Data set [24] has as its target Tyrosine-protein kinase JAK1 (Homo sapiens) (UniProt P23458). Briefly: Inhibition of recombinant human GST-tagged JAK1 (866 to 1154 residues) expressed in baculovirus expression system using Tyr 06 as substrate at 10 uM incubated for 60 mins by Z'-lyte assay relative to control.

≈ marks a conversion by molar mass, not a printed value.

One may read the inhibition as the drop in the measured response relative to a control, in per cent.

Chain of Aurora kinase B (Homo sapiens) (Q96GD4 whole entry, the tested form may be a part): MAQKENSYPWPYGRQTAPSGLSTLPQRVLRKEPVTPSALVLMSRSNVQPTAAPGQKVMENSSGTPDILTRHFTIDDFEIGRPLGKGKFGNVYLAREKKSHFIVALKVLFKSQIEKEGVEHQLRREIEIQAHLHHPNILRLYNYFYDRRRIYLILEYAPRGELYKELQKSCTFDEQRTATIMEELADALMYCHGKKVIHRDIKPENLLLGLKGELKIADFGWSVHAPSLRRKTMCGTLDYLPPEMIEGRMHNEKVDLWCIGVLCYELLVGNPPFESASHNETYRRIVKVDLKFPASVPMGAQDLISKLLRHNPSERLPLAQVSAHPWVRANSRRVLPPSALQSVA
Chain of Serine/threonine-protein kinase Nek9 (Homo sapiens) (Q8TD19 whole entry, the tested form may be a part): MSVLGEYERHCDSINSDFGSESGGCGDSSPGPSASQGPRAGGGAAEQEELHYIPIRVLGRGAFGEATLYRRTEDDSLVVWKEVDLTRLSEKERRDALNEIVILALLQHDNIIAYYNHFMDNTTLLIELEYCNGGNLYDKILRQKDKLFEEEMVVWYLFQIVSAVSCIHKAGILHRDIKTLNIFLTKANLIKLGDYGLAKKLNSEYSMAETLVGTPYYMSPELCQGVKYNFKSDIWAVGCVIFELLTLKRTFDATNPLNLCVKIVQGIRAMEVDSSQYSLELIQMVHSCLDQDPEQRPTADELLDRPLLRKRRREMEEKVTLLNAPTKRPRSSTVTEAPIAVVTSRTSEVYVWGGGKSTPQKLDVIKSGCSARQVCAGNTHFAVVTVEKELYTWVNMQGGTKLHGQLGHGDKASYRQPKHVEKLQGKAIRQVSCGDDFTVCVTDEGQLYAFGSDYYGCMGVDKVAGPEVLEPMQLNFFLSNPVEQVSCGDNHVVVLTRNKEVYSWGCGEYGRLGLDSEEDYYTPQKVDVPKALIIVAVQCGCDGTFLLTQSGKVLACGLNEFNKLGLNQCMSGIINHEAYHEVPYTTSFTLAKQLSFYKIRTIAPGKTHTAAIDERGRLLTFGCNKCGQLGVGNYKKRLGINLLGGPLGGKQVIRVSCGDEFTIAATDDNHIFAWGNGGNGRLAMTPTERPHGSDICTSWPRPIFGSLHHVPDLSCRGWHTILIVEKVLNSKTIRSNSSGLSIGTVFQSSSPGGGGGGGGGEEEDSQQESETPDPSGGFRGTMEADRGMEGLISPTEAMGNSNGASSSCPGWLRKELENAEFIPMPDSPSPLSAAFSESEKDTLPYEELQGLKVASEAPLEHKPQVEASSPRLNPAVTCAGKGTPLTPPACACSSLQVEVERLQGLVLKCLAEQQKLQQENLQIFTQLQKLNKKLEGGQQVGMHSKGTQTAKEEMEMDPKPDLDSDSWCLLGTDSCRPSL
Chain of Mitogen-activated protein kinase kinase kinase 9 (Homo sapiens) (P80192 whole entry, looked up, the tested form may be a part): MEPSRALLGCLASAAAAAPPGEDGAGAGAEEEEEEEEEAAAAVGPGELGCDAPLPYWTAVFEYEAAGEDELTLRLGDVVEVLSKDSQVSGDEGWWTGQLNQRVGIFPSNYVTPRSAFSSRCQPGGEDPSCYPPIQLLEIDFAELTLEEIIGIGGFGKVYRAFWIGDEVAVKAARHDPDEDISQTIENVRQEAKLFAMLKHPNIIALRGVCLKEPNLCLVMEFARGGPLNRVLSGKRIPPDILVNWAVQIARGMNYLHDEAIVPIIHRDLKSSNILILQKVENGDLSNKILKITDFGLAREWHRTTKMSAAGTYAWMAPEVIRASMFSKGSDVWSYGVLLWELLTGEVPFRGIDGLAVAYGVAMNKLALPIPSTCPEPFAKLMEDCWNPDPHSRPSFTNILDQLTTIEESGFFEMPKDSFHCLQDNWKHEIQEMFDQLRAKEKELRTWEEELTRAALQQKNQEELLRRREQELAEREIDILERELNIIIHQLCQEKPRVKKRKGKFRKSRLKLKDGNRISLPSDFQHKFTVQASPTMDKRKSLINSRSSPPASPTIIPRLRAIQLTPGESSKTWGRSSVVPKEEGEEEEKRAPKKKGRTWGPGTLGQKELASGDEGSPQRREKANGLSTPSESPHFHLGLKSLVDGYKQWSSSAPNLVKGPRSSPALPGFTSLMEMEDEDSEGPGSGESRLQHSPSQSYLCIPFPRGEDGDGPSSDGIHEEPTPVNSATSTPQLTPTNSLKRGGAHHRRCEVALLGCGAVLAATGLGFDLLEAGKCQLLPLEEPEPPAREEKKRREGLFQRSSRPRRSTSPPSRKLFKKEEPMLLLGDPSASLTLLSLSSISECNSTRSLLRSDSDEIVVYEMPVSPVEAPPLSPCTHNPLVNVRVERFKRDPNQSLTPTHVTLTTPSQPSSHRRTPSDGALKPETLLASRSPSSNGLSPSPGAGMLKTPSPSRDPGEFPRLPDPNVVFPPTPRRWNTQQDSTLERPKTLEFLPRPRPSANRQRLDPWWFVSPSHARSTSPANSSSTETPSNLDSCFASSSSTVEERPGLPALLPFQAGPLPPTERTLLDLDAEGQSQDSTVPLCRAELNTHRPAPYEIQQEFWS

Regarding `CN1C(=O)[C@@H](NC(=O)c2n[nH]c3ncc(C(F)(F)C(F)(F)F)cc23)COc2ccccc21`, the inhibition in data set [1] came to 5%; in data set [2], 7.5%; in data set [3], 9%; in data set [4], 6.5%; in data set [5] it was 7%; in data set [6], 3%. The inhibition was 7.5% in data set [7]; -3.5% in data set [8]; 14% in data set [9]; 0.5% in data set [10]; 12.5% in data set [11]; -5.5% in [12]. For the same compound, the inhibition is 15.5% in data set [13]; 0.5% in [14]; 6% in data set [15]; -1% in [16]; 4.5% in data set [17]; -8.5% in [18]. The inhibition in data set [19] is -0.5%; in [20], 8.5%; in [22] it was 0%; in data set [23] it was 2.5%; in [24], 5%. In addition, the solubility kinetic in data set [21] came out at 17 µM (≈ 7.74 µg/mL).
